Here are results for seven compounds from patent US4216128A, “Enkephalin analogues” (American Home Products Corporation, priority 1979, dated 1980).

Non-standard residues stand in square brackets, D forms with d. Residues, ends and D or L forms follow the SMILES beside them.

The conditions of test [1]: Coy et al.; cited from earlier work.
In another test the test system is guinea pig ileum. To be noted: cited from earlier work.
A further test has as its system rats. The following applies: injection in the brain ventricle, fully reversible by naloxone; cited from earlier work.
A further test deals with mouse vas deferens. The following applies: cited from earlier work.
For test [2], the system named is opiate receptor. The following applies: brain homogenates; cited from earlier work.
The conditions of test [3]: peripheral administration; cited from earlier work.
For test [4], the system named is opiate receptor. The experiment in a line: relative displacement potency, procedure of Chang et al. It is filed as binding. To be noted: relative to morphine.
The test system of a further test is CF-1 mice. Put plainly: phenylbenzoquinone induced writhing test (analgesia). The test is classed as in vivo.
For test [5] the following is noted: intravenous administration; cited from earlier work.
The conditions of test [6]: intracerebroventricular; cited from earlier work.

As to D-Met^5 enkephalin, the “activity relative to Met enkephalin” value in test [1] is recorded as “one tenth”. For `CSCC[C@H](NC(=O)[C@H](Cc1ccccc1)NC(=O)CNC(=O)CNC(=O)[C@@H](N)Cc1ccc(O)cc1)C(=O)O` [methionine-enkephalin, H-Tyr-Gly-Gly-Phe-Met-OH], the “block of electrically evoked contractions” value with guinea pig ileum and in the test on mouse vas deferens was “block electrically evoked contractions” throughout. Also, in the test with rats, the analgesia entry is reported as “profound analgesia”. Also, the “inhibition of stereospecific receptor binding of 3H-naloxone” value in the test with opiate receptor [2] is given as “inhibit”.

`CSCC[C@H](NC(=O)[C@H](Cc1ccccc1)NC(=O)CNC(=O)[C@@H](C)NC(=O)[C@@H](N)Cc1ccc(O)cc1)C(N)=O` [Tyr-D-Ala-Gly-Phe-Met-amide]: the “activity when administered peripherally” value in [3] was “inactive”. For the compound `CN[C@@H](Cc1ccc(O)cc1)C(=O)N[C@H](CS)C(=O)NCC(=O)N(C)[C@@H](Cc1ccccc1)C(=O)N[C@H](CC(N)=O)C(N)=O` [Example 4, N-Methyl-L-tyrosyl-D-cysteinyl-glycyl-N-methyl-L-phenylalanyl-D-asparagine amide], the relative displacement potency entry with opiate receptor [4] is “two”. The “percent analgesia after oral administration” value in the test on CF-1 mice (oral dose of 50 mg/kg, 30 minutes) came out at 10%. Further, the “ED50 (analgesia, absence of writhing)” value in the test on CF-1 mice (subcutaneous administration, at 15 minutes, mice) is reported as 0.64 (0.29-1.4) mg/kg. In the case of `CC(C)C[C@H](NC(=O)[C@H](Cc1ccccc1)NC(=O)CNC(=O)CNC(=O)[C@@H](N)Cc1ccc(O)cc1)C(=O)O` [leucine-enkephalin, H-Tyr-Gly-Gly-Phe-Leu-OH], the analgesia result with rats was “profound analgesia”. On to `CSCC[C@@H](NC(=O)[C@@H](N)Cc1ccc(O)cc1)C(=O)NCC(=O)N[C@@H](Cc1ccccc1)C(=O)N1CCC[C@H]1C(N)=O` [Tyr-D-Met-Gly-Phe-Pro-NH2] (H-Y[dM]GFP-NH2), for which, in test [5], the “antinociceptive potency relative to morphine” value was 5.5 times more potent than morphine. For the compound Tyr-D-Ala-Gly-Phe-D-Leu, the “activity when administered intracerebroventricularly” value in [6] is “activity”.
